Reference: patent US20080269202A1, “Novel 2,3-benzodiazepine derivatives and their use as antipsychotic agents” (Teva Pharmaceutical Industries Ltd., priority 2007, published 2008)
Where two headings read alike, the source gives them in different places.

Columns and labels:
[1] = system: apomorphine-induced stereotyped behavior; test: apomorphine-induced stereotypy; format: in vivo, CD1 mice; details: for ED50: Mus musculus, read-out: Stereotypy ED50 (mg/kg po.)
Excerpt: (§1) Anti-apomorphine effects were investigated in the climbing test in mice mediated through the mesolimbic and stereotypy test in rats mediated through the nigrostriatal system. Conventional antipsychotics antagonize both apomorphine-induced behaviours, while known atypical antipsychotics are weaker against apomorphine stereotypy.
Apomorphine-induced stereotypy was investigated according to Costall and Naylor (B. Costall and R. J. Naylor, Eur. J. Pharmacol. 1972, 18, 95) in male CD1 mice of 20-25 g body weight after 16 hours deprivation of food. 30 min before treatment mice were individually placed into small, transparent acrylic cages for habituation. Test substances were administered orally in a volume of 0.1 ml/10 g. 30 min later mice were treated with apomorphine HCl (SIGMA) in a subcutaneous dose of 2 mg/kg. […] The scores were summed individually, meaned and compared to the control group. The ED50 values were calculated by Litchfield-Wilcoxon's method (J. Pharmacol. Exp. Ther. 1949, 96, 49,).

[2] = system: PCP-induced hypermotility; test: PCP-induced hypermotility (motor activity meter) in mice; format: in vivo; details: Mus musculus, read-out: PCP-hypermotility ED50 mg/kg po.
Excerpt: (§2) Alterations in the mesocortical dopaminergic tract are thought to be responsible for the negative symptoms of schizophrenia (flattening of affect, poverty of speech, lack of volition and drive, loss of feeling, social withdrawal and decreased spontaneous movement). The best animal model of these symptoms is the behavioral changes induced by PCP (phencyclidine). The PCP-induced stereotypy and hypermotility was investigated in mice according to Ljungberg and Ungerstedt (Ljungberg, T., Ungerstedt, U. Pharmacol. Biochem. Behav., 1985, 23, 479,) and Jawitt (Jawitt, D. C. Amer. J. Psychiatry, 1991, 145, 1301). The stereotypy experiments were carried out in male CD1 mice weighing 20-25 g. The animals were starved for 16 hours before treatment without limitation of water availability. In the stereotypy studies, 30 min before treatment, mice were individually placed into small, transparent acrylic cages for habituation. Test substances were administered orally in a volume of 0.1 ml/10 g. 30 min later mice were treated with PCP with an intraperitoneal dose of 7 mg/kg. Stereotyped behavior was observed every 5th min for 60 min and scored from 0 to 4. The scores were summed individually, averaged and compared to the control group.
The motor activity was measured in a 4-channel activity meter. The apparatus consisted of acrylic cages (40×40×32 cm) equipped with 16 pairs of infrared photocells. The photocells' beam, when broken, signaled a count, which was then recorded by a computer. A 5 mg/kg intraperitoneal dose of PCP was administered 5 min before the experiment. This dose of PCP induces 110-120% increase of the spontaneous motor activity. Test substances were administered orally 15 min before experiment, and mice were investigated individually in the experimental cages for 60 min. 10 mice/group were used. The total counts for each experimental group were compared to the vehicle treated control group.
(§3) In both studies the ED50 values were calculated by the Litchfield-Wilcoxon's method (J. Pharmacol. Exp. Ther. 1949, 96, 49).

[3] = system: apomorphine-induced climbing; test: apomorphine-induced climbing test in mice; format: in vivo, CD1 mice; details: for ED50: Mus musculus, read-out: Climbing ED50 (mg/kg ip.)
Procedure: as §1
The climbing test was carried out according to Protais et al. (Protais, P. et al. Psychopharmacologia, 1976, 50, 1.) Stereotyped behavior was induced in food deprived (for 16 hours) male CD1 mice weighing 20-25 g body by apomorphine HCl (SIGMA) in a s.c. dose of 2 mg/kg. Mice were placed individually into cylinders having 12 cm diameter and consisting of vertical bars of 2 mm diameter where apomorphine treated animals tended to adopt a vertical position in contrary to vehicle treated controls. Test substances were applied ip. 30 min before apomorphine.
10 and 20 min after apomorphine treatment the climbing behaviour was evaluated by scores of 0-2. 10 mice/group were used. The scores of the two readings were summed individually, meaned and compared to the control. The ED50 values were calculated by Litchfield-Wilcoxon's method (Litchfield Jr. J. T., Wilcoxon, F. J. Pharmacol. Exp. Ther. 1949, 96, 49,).

[4] = system: DOPA accumulation in eminentia mediana; test: DOPA accumulation in eminentia mediana after NSD-1015; format: in vivo, Sprague-Dawley rats; details: for DOPA levels (pmol/mg prot): rat eminentia mediana, mean ± SEM
Procedure: Acute administration of atypical antipsychotics results in enhanced accumulation of dihydroxyphenylalanine (DOPA) in the […] after the inhibition of DOPA decarboxylase. In contrast, DOPA accumulation is not altered by the typical antipsychotics (Andersson, G, Albinsson, A, Pettersson, G, Arzneimittelforschung. 1990, 40, 237; Gudelsky, G. A., Meltzer, H. Y. Neuropsychopharmacology, 1989, 2, 45). The effect of the compound of Example 121 on DOPA-accumulation was measured by analyzing the levels of DOPA in […]. […] (EM), were dissected out from the brains on ice-cold plates and kept at -70° C. until they were assayed for DOPA by HPL-EC. Statistical analysis was carried out using one-way ANOVA followed by Duncan test.

catalepsy = catalepsy test in rats; format: in vivo, CDBR rats; details: for Catalapsy scores: dose 10 mg/kg ip, sum of 8 readings over 4 hours; for cataleptogenic potential: intraperitoneal, result in words
Excerpt: In order to investigate the potential side effect profile, the catalepsy test in rats has been carried out according to Costall and Naylor (Costall, B., Naylor, R. J. Arzneimittelforschung/Drug Res., 1973, 23, 674).
Catalepsy is defined as a failure to correct an externally imposed, unusual posture over a prolonged time. Neuroleptics which have direct inhibitory action on the nigrostriatal dopamine system induce catalepsy. It may be reflected by the Parkinson-like extrapyramidal symptoms seen clinically with administration of classical antipsychotics. The experiments were carried out in male CDBR rats weighing 300-400 g. The volume of administration was 0.25 ml/100 g body weight. The animals were starved for 16 hours before treatment, water was delivered ad libitum. After intraperitoneal administration of the test substances, the forepaws of the rats were placed on a horizontal stainless steel bar elevated to 10 cm high, while the hind paws remained on a metal plate. The semi-automatic 5-channel catalepsy meter measured the time spent in this unusual posture by an electronic stop-clock. The catalepsy time was scored from 0 to 5 according to the time spent in the unusual posture. […] Means of groups were calculated.

PCP-induced locomotion = test: PCP induced locomotor activity test (open field); format: in vivo, mice; details: all doses (3, 7, 14, 28, 40 mg/kg) by gavage, PCP 5 mg/kg, vs vehicle
Procedure: The effects of compounds 121 and 183, administered orally, were also evaluated in the PCP induced locomotor activity test. Compound 121 was designated as “Compound A” and Compound 183 was designated as “Compound B” for purposes of this study. In general, the study aimed to test Compounds A and B for potential antipsychotic activity in PCP treated mice.
Compounds A & B were dissolved in 3% Tween: Compound A: 1, 3, 6, 10, and 15 mg/kg; Compound B: 3, 7, 14, 28, and 40 mg/kg; Compounds A+B were administered by gavage.
PCP (5 mg/kg) was dissolved in sterile injectable water.
The open field (“OF”) test assessed both anxiety and locomotor behavior. The open field chambers are Plexiglas square chambers (27.3×27.3×20.3 cm; Med Associates Inc., St Albans, Vt.) surrounded by infrared photobeams (16×16×16) to measure horizontal and vertical activity. The analysis was configured to divide the open field into a center and periphery zone. Distance traveled was measured from horizontal beam breaks as the mouse moved whereas rearing activity was measured from vertical beam breaks.
Mice were brought to the activity experimental room for at least 1 hr acclimation to the experimental room conditions prior to testing. […]
Data was analyzed to show baseline activity (activity during the 30 min prior to PCP injection) and PCP-induced activity (activity during the 60 min after PCP injection).

[5] = system: PCP-induced disruption of PPI; test: PCP-induced disruption of pre-pulse inhibition (PPI); details: for reversal of PCP-induced disruption of PPI: PCP 8 mg/kg, C57B1/6J mice
Excerpt: Male C57B1/6J mice from Jackson Laboratories (Bar Harbor, Me.) were used in this study. Mice were received at 6-weeks of age. Upon receipt, mice were assigned unique identification numbers (tail marked) and were group housed in OPTImice cages. All animals remained housed in groups of four during the remainder of the study. […] During the period of acclimation, mice were examined on a regular basis, handled, and weighed to assure adequate health and suitability. Mice were maintained on a 12/12 light/dark cycle with the light on at 6:00 a.m. The room temperature was maintained between 20 and 23° C. with a relative humidity maintained between 30% and 70%. Food and water were provided ad libitum for the duration of the study. In each test, animals were randomly assigned across treatment groups.
All compounds were injected i.p. at a dose volume of 10 ml/kg. […] Phenylcyclohexylpiperidine (PCP) (8 mg/kg) was dissolved in sterile water.
The acoustic startle measured an unconditioned reflex response to external auditory stimulation. […] Mice were placed in the PPI chambers (Med Associates) for a 5 min session of white noise (70 dB) habituation.
After the acclimation period the test session was automatically started. The session started with a habituation block of 6 presentations of the startle stimulus alone, followed by 10 PPI blocks of 6 different types of trials. Trial types are: null (no stimuli), startle (120 dB), startle plus prepulse (4, 8 and 12 dB over background noise i.e. 74, 78 or 82 dB) and prepulse alone (82 dB). Trial types were presented at random within each block.
Each trial started with a 50 ms null period during which baseline movements were recorded. There was a subsequent 20 ms period during which prepulse stimuli were presented and responses to the prepulse measured. After further 100 ms the startle stimuli were presented for 40 ms and responses recorded for 100 ms from startle onset. Responses were sampled every ms. The inter-trial interval was variable with an average of 15 s (range from 10 to 20 s). In startle alone trials the basic auditory startle was measured and in prepulse plus startle trials the amount of inhibition of the normal startle was determined and expressed as a percentage of the basic startle response (from startle alone trials), excluding the startle response of the first habituation block.
Data were analyzed by analysis of variance (ANOVA) followed by post-hoc comparisons with Fisher Tests when appropriate. An effect was considered significant if p<0.05. Data are represented as the mean and standard error to the mean.

PCP-induced stereotypy = PCP-induced stereotypy in mice; format: in vivo, CD1 mice; details: Mus musculus, read-out: PCP-stereotypy ED50 mg/kg po.
Excerpt: as §2, §3

[6] = system: conditioned avoidance responses; test: conditioned avoidance: pole jumping test in rats; format: in vivo, Long-Evans rats
Excerpt: For measuring the antipsychotic potential in a non-perturbed dopamine system the pole jumping assay was used (Cook, L., Catania, A. C. Fed. Proc. 1964, 23, 818.)
This method is an active avoidance learning test. Long-Evans rats, weighing 250-450 g, were used in the experiments. Rats are placed in a box (25×25×25 cm) on a grid floor in the center of which there is a pole. After a latency period, light is turned on for a given time then the floor is electrified to deliver an unpleasant footshock. Rats may learn to avoid the shock by jumping up to grasp the pole. As soon as the rat jumps up the light and shock are turned off. Each light-on period lasted for 15 s, shock time for 30 s with an intertrial interval of 15 s. 30 such trials per day were repeated during the learning period until animals reach a minimum of 80% avoidance rate. During the experimental sessions 20 trials/day were run. Test substances were administered ip. in a volume of 0.25 ml/100 g body weight. Significances were calculated by Student's t test.

[7] = mice, ip. 30 min before apomorphine 2 mg/kg s.c.

SMILES | ED50 ([1]; mice, po. 30 min before apomorphine 2 mg/kg s.c.) [mg/kg] | inhibition of apomorphine-induced stereotyped behavior ([1]; mice, result in words) | ED50 ([2]; mice, po. 15 min before experiment, PCP 5 mg/kg ip) [mg/kg] | ED50 [3, 7] [mg/kg] | inhibition of apomorphine-induced climbing ([3]; mice, result in words) | DOPA levels (pmol/mg prot) ([4]; 10 mg/kg ip, NSD-1015 90 min after treatment) | effect on levels of DOPA in the EM of rats ([4]; result in words, vs saline) | Catalapsy scores (catalepsy) | cataleptogenic potential (catalepsy) | melting point [°C] | effect on PCP induced locomotion (PCP-induced locomotion) | sedation and lethargy in the mice ([5]; 15 mg/kg i.p. (high dose)) | reversal of PCP-induced disruption of PPI ([5]; 5, 10, and 15 mg/kg i.p.) | reversal of PCP-induced disruption of PPI ([5]; all doses (1.5, 5, 10, 15 mg/kg) i.p.) | ED50 [1] [mg/kg] | ED50 (PCP-induced stereotypy) [mg/kg] | ED50 [2] [mg/kg] | ED50 [3] [mg/kg] | DOPA levels (pmol/mg prot) ([4]; 20 mg/kg ip) | MED (mg/kg ip), minimal effective dose (stat. sign.) [6] [mg/kg]
CN(C)CCCN1c2ccccc2Sc2ccc(Cl)cc21 [Chlorpromazine, reference compound] | 3.6 | inhibited both behaviors | 1.86 | 1.2 | inhibited both behaviors | 56.4 ± 4.1 | had no effect | 10:8.7 | induces severe catalepsy | – | – | – | – | – | – | – | – | – | – | –
COc1cc2c(cc1OC)C(c1ccc(NC(C)=O)cc1)=NN(c1nccs1)[C@H](C)C2 [Example 183] | – | – | – | 8.7 | – | – | – | – | – | 156 to 158 | significantly decreased | caused sedation and lethargy | significantly reversed | significantly reversed | – | – | – | – | – | –
CN1CCN(C2=Nc3cc(Cl)ccc3Nc3ccccc32)CC1 [Clozapine, reference compound] | – | – | – | – | – | – | – | 10:0.14 | lack cataleptogenic potential | – | – | – | – | – | 22.9 | 3.76 | 1.81 | 2.64 | 87.4 ± 9.5 | 2
